According to patent US6699686B1, “Modified nuclear glucocorticoid receptor, fusion protein, and DNA fragments coding for said receptor and said fusion protein” (Association pour le Development de la Recherche en …, priority 1996, dated 2004):

Molecular target: T1, hGR(I747/T) (Homo sapiens, UniProt P04150, I747T)
T1 construct: The same shift was observed as with the complete GR (I747/T) mutant; expressed in transfected cells
T1 sequence (P04150 1-777 I747T): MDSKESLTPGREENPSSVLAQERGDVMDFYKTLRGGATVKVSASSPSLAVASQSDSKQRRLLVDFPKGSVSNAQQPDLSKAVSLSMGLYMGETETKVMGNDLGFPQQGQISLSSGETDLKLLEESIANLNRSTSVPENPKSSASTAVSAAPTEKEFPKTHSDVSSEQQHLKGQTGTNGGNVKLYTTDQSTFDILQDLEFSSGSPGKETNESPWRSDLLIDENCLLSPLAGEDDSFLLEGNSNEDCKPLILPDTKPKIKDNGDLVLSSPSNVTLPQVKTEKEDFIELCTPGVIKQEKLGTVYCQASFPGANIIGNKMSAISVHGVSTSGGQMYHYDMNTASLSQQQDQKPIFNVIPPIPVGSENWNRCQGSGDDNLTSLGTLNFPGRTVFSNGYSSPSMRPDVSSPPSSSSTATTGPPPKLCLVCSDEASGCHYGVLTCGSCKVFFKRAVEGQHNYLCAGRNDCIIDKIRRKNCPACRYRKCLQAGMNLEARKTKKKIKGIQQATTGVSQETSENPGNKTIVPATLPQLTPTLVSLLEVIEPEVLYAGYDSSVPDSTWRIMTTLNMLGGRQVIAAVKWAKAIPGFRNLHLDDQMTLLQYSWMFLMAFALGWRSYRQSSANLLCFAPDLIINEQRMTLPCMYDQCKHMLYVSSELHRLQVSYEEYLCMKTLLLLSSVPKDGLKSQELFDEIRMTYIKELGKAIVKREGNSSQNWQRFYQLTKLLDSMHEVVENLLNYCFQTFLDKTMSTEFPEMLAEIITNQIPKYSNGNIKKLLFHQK
Assay: Transcriptional activation of pTAT-tk-Luc luciferase reporter in transiently transfected CV-1 cells
Assay type: cell-based
Settings: CV-1 cells, pTAT-tk-Luc; for Luciferase activity % hGR (I747/T): 24 h ligand, mean of three independent assays; for EC50 hGR (I747/T): ligand concentration giving 50% of maximum transcriptional response
Description: The receptors were transiently expressed in GR-free CV-1 cells, conjointly with a luciferase reporter gene under the control of the tyrosine aminotransferase promoter (pTAT-tk-Luc).
After transfection, the cells were incubated for 24 hours with increasing concentrations of Dex, and they were then subjected to an assay of the β-galactosidase and luciferase activities, as described in “Materials and Methods”. The luciferase activity was normalized with the β-galactosidase activity, and the value obtained in the absence of ligand was subtracted for each point. The results were expressed as a percentage of the maximum luciferase activity obtained for each receptor. Each point is the mean±standard deviation of the mean of four separate determinations carried out in duplicate. […] The [^3H] steroid attached was measured after treatment with dextran-coated charcoal. The results presented are those for a single assay carried out in duplicate and representative of three separate assays.
Co-transfections were carried out and dose-response curves were constructed as described in FIG. 2. […] The assays of luciferase and β-galactosidase activity were carried out as described in “Materials and Methods”. The mean values of three independent assays are given in this table. nm=not measurable.
The CV-1 and Cos-7 cells were cultured in Dulbeco's modified Eagle's medium (DMEM) containing 10% (v/v) of fetal calf serum (FCS) (Gibco, Grand Island, N.Y.), in a humidified atmosphere containing 5% CO2. The HeLa cells were cultured under the same conditions. Transient transfections were carried out in 6-well multiplates according to the calcium phosphate procedure already described (42). A reference recombinant plasmid, pCMV-βgal, expressing bacterial β-galactosidase, was transfected conjointly with the receptor expression vector and the corresponding reporter gene so as to correct possible variations in he transfection efficiency. The precipitate was removed by washing after 24 hours, and the cells were kept in DMEX without FCS but containing hormone. After another 24 hours, the cells were rinsed and lysed for 15 minutes with 0.3 ml of lysis buffer [25 mM Tris.phosphate, pH 7.8, 8 mM […], 1% Triton X100, 10% glycerol (48)]. The corresponding luciferase activity as determined on an aliquot fraction (0.1 ml), by evaluation of the luminescence peak (for an integration time of 15 seconds), after injection of 0.1 ml of 1 mM luciferin in an LKB luminometer. The β-galactosidase was determined by the method modified by Bocquel et al. (49), for controlling the efficiency of each transfection.
The reporter gene pTAT-tk-Luc was provided by D. Gagne and was constructed as follows: an intermediate plasmid pTAT was first generated by insertion of the 966 bp EcoRI-BamHI segment obtained from pKT531 [offered freely by T. Grande (50)] into the corresponding sites of the vector pUC19 (Pharmacia). The fragment containing the sequence coding for the firefly luciferase and the thymidine kinase (tk) minimal promoter obtained from the Herpes simplex virus was isolated in the form of a BamHI fragment from pvit-tk-Luc (51) and inserted, downstream of the TAT promoter, into the corresponding site of pTAT. The reporter plasmid pGRE-tk-Luc was constructed by ligation of the fragment of HindIII-BglII digestion of pGRE-tk-CAT (52), which contains a synthetic GRE (AGAACAcagTGTTCT) upstream of the tk minimal promoter, into the HindIII-BglII sites of pLuc (53). The reporter gene p(17M)5-βGlob-Luc has been previously described (54). The reporter plasmid p(17M)5-tata-Luc was constructed from the plasmid p(17M)5-tata-CAT (55) by digestion with XhoI-BamHI and isolation of the fragment containing (17M5)-tata. This fragment was then inserted into the vector pGL2 (Promega) digested with the same restriction enzymes.

Row | Structure (SMILES) | transactivation by the I747/T mutant receptor compared with wild-type receptor | Luciferase activity % hGR (I747/T) [%] | EC50 hGR (I747/T)
1 | C[C@]12C[C@H](O)[C@H]3[C@@H](CCC4=CC(=O)CC[C@@]43C)[C@@H]1CC[C@@H]2C(=O)CO [Corticosterone, corticosterone] | suppressed | 0 | nM
2 | C[C@]12CCC(=O)C=C1CC[C@@H]1[C@@H]2[C@@H](O)C[C@]2(C=O)[C@@H](C(=O)CO)CC[C@@H]12 [Aldosterone, aldosterone] | suppressed | 0 | nM
3 | C[C@]12CCC(=O)C=C1CC[C@@H]1[C@@H]2[C@@H](O)C[C@@]2(C)[C@H]1CC[C@]2(O)C(=O)CO [Cortisol, cortisol] | greatly reduced | 15 | 
4 | C[C@@H]1C[C@H]2[C@@H]3CCC4=CC(=O)C=C[C@]4(C)[C@@]3(F)[C@@H](O)C[C@]2(C)[C@@]1(O)C(=O)CO [Dexamethasone, dexamethasone] |  | 100 | 
